We go through ten molecules from ChEMBL document CHEMBL1201862, “PubChem BioAssay data set” (2004).

Holding throughout (assay): growth of human tumour cells (NCI), 48 h
Assay [1] relates to CCRF-CEM.
Assay [2] concerns OVCAR-8.
For assay [3], the system named is SN12C.
The subject of assay [4] is CAKI-1.
The test system of assay [5] is SK-MEL-5.
Assay [6] relates to SF-295.
Assay [7] relates to IGROV-1.
Assay [8] has as its system A549.
Assay [9] has as its system HL-60.
For assay [10], the system named is UACC-62.
The subject of assay [11] is HCT-116.
The test system of assay [12] is NCI/ADR-RES.
Assay [13] concerns SF-539.
Assay [14] has as its system MDA-N.
The test system of assay [15] is PC-3.
Assay [16] has as its system 786-0.
Assay [17] deals with HOP-92.
Assay [18] concerns UACC-257.
Assay [19] deals with OVCAR-3.
The subject of assay [20] is Hs-578T.

Each structure is given as a SMILES string.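 Five concentrations, 48 hours, 96-well plates. GI50 = concentration required for 50% inhibition of growth.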 The source made the active and inactive calls. Rule as the data show it: active = GI50 up to about 1.1 µM and inactive = higher.

For `CC(=O)Nc1cc(C(=O)Nc2cc(C(=O)N3CC(CCl)c4c3cc(N)c3ccccc43)nn2C)nn1C` (centres undefined), the GI50 was < 0.01 µM (active) in [1]; 0.0209 µM (active) in assay [2]; < 0.01 µM (active) in assay [3]; < 0.0393 µM (active) in assay [4]; 0.0178 µM (active) in [5]; 0.287 µM (active) in assay [6]. Besides, the GI50 was 0.0405 µM (active) in assay [7]; 0.187 µM (active) in assay [8]; < 0.01 µM (active) in assay [9]; < 0.0118 µM (active) in [10]; 0.0187 µM (active) in assay [11]; 0.541 µM (active) in [12]. The GI50 in assay [13] is 0.0191 µM (active); in [14], 0.133 µM (active); in [15] it was 0.101 µM (active); in assay [16], 0.0893 µM (active); in [17], < 0.0218 µM (active); in assay [18] it was 0.186 µM (active). Further, the GI50 in assay [19] is 0.23 µM (active); in assay [20], 0.176 µM (active).
Regarding `CCOC(C[Se]CC(OCC)OCC)OCC`, the GI50 in assay [1] was 33.4 µM (inactive); in assay [2], 27.2 µM (inactive); in assay [4], 59.4 µM (inactive); in assay [5] it was 15.7 µM (inactive); in assay [6] it was 26.1 µM (inactive); in assay [7] it was 24.1 µM (inactive). Further, the GI50 in assay [8] is 75.5 µM (inactive); in assay [9] it was 16.8 µM (inactive); in assay [10], 28.4 µM (inactive); in assay [11], 32.7 µM (inactive); in assay [12], 50.9 µM (inactive); in [13], 28.7 µM (inactive). For the same molecule, the GI50 is 89.7 µM (inactive) in assay [14]; 37.9 µM (inactive) in assay [15]; > 100 µM (inactive) in assay [16]; 39.6 µM (inactive) in assay [17]; 85.1 µM (inactive) in assay [18]; > 100 µM (inactive) in assay [19]. Further, in assay [20], the GI50 is 14.9 µM (inactive).
With `O=C1CC(n2cccc2)c2cc(Br)sc21` (centres undefined), the GI50 in [1] was 18.7 µM (inactive); in assay [2] it was 36.9 µM (inactive); in assay [3], 43.9 µM (inactive); in assay [4], > 100 µM (inactive); in [5], > 100 µM (inactive); in [6] it was > 100 µM (inactive). Besides, the GI50 in assay [7] was > 100 µM (inactive); in assay [8], > 100 µM (inactive); in assay [9] it was 14.5 µM (inactive); in assay [10], > 100 µM (inactive); in assay [11], 66.7 µM (inactive); in assay [12], > 100 µM (inactive). Further, the GI50 in assay [13] was > 100 µM (inactive); in assay [14], 55.6 µM (inactive); in assay [15], > 100 µM (inactive); in assay [16], 42 µM (inactive); in [17] it was > 100 µM (inactive); in assay [18], > 100 µM (inactive). For the same molecule, the GI50 in assay [19] and in assay [20] was > 100 µM (inactive) each time.
As for `COc1cc([C@@H]2C3C(=O)c4ccccc4C3[C@@H](c3cc(OC)c(OC)c(OC)c3)C23Cc2ccccc2C3=O)cc(OC)c1OC` (some centres undefined), the GI50 in assay [1] is > 100 µM (inactive); in assay [2] it was > 100 µM (inactive); in [3], > 100 µM (inactive); in assay [4], 2.75 µM (inactive); in assay [5], > 100 µM (inactive); in assay [6] it was > 100 µM (inactive). Further, the GI50 in assay [7] is 24.3 µM (inactive); in assay [8] it was > 100 µM (inactive); in [9], > 100 µM (inactive); in [11], > 100 µM (inactive); in assay [12] it was > 100 µM (inactive); in assay [13] it was > 100 µM (inactive). For the same molecule, the GI50 in assay [14] is > 100 µM (inactive); in assay [15] it was > 100 µM (inactive); in [16], > 100 µM (inactive); in assay [17] it was 1.87 µM (inactive); in [18], > 100 µM (inactive); in assay [19], > 100 µM (inactive). Besides, in assay [20], the GI50 is > 100 µM (inactive).
On to `O=c1ccc(=O)n(-c2ccccc2)[nH]1`, for which the GI50 in assay [1], in [2], in [3], in assay [4], in assay [5] and in assay [6] was > 100 µM (inactive) throughout. Also, the GI50 in assay [7], in assay [8], in [9], in assay [10], in assay [11] and in assay [12] was > 100 µM (inactive) each time. In addition, the GI50 in assay [13], in assay [14], in assay [15], in [16], in [17] and in assay [18] was > 100 µM (inactive) in each case. Also, the GI50 in assay [19] and in assay [20] was > 100 µM (inactive) each time.
For the molecule `CCOC(=O)NC(Nc1ccc(F)cc1F)(C(F)(F)F)C(F)(F)F`, the GI50 in assay [1], in [2], in assay [3], in assay [4], in assay [5] and in assay [6] was > 100 µM (inactive) throughout. The GI50 in assay [7], in [8], in assay [9], in assay [10], in assay [11] and in assay [12] was > 100 µM (inactive) throughout. The GI50 in assay [13], in assay [14], in assay [15], in assay [16], in [17] and in assay [18] was > 100 µM (inactive) throughout. Besides, the GI50 in assay [19] and in assay [20] was > 100 µM (inactive) each time.
As to `COc1ccc(/C=C2\CCS(=O)(=O)c3ccccc3C2=O)cc1OC`, the GI50 was 28.9 µM (inactive) in assay [1]; 19.1 µM (inactive) in assay [2]; 28.2 µM (inactive) in assay [3]; 58.6 µM (inactive) in assay [4]; 43.6 µM (inactive) in assay [6]; 7.91 µM (inactive) in assay [7]. The GI50 in assay [8] was > 100 µM (inactive); in [9] it was 17.4 µM (inactive); in assay [10], 16.7 µM (inactive); in assay [11], 28.1 µM (inactive); in [12] it was 28.8 µM (inactive); in [13], 25.6 µM (inactive). Besides, the GI50 in [14] is 45.4 µM (inactive); in [15], 27.5 µM (inactive); in assay [16] it was 28.1 µM (inactive); in assay [17], 19.6 µM (inactive); in assay [18], 35.5 µM (inactive); in assay [19], 22.7 µM (inactive). Further, the GI50 in assay [20] was 20.7 µM (inactive).
As for `Nc1ccc(S(=O)(=O)NCCS(=O)(=O)O)cc1`, the GI50 in [1], in assay [2], in assay [3], in [4], in [5] and in assay [6] was > 100 µM (inactive) each time. The GI50 in assay [7], in [8], in assay [9], in [10], in [11] and in assay [12] was > 100 µM (inactive) each time. For the same molecule, the GI50 in assay [14], in [15], in assay [16], in assay [17], in assay [18] and in assay [19] was > 100 µM (inactive) each time. Also, the GI50 in assay [20] is > 100 µM (inactive).
As to `COc1ccc(OCc2nc3cc(C(F)(F)F)ccc3nc2-c2ccccc2)cc1`, the GI50 in assay [1], in [2], in [3], in assay [4], in assay [5] and in [6] was > 100 µM (inactive) each time. For the same molecule, the GI50 in assay [8], in [9], in assay [10], in assay [11], in assay [12] and in assay [13] was > 100 µM (inactive) in each case. For the same molecule, the GI50 in [14], in [15], in assay [16], in assay [17], in assay [18] and in assay [19] was > 100 µM (inactive) in each case. The GI50 in assay [20] was > 100 µM (inactive).
As for `C[N+](C)(C)CCCSc1nc2ccccc2[nH]1`, the GI50 in assay [1], in assay [2], in [3], in [4], in assay [5] and in [6] was > 100 µM (inactive) throughout. Also, the GI50 in assay [7], in assay [8], in [9], in assay [10], in assay [11] and in [12] was > 100 µM (inactive) throughout. In addition, the GI50 was > 100 µM (inactive) in assay [14]; > 100 µM (inactive) in assay [15]; > 100 µM (inactive) in assay [16]; > 100 µM (inactive) in assay [17]; 30.1 µM (inactive) in assay [18]; > 100 µM (inactive) in assay [19]. The GI50 in assay [20] is > 100 µM (inactive).
